Measured values: patent publication US20240067655A1 (NEURON23, INC., priority 2020, published 2024)

What was measured:
[1] = biological target: T1, wt human NUAK1, full length (Homo sapiens, UniProt O60285); test: TR-FRET LanthaScreen Eu Kinase Binding Assay, NUAK1 (Example 72); details: Example 72 text; read-out: IC50, Inhibitory Activity Toward NUAK1
T1 construct: 8 nM wt human NUAK1, full length (ThermoFisher/USA); purchased ThermoFisher/USA
T1 sequence (O60285 1-661): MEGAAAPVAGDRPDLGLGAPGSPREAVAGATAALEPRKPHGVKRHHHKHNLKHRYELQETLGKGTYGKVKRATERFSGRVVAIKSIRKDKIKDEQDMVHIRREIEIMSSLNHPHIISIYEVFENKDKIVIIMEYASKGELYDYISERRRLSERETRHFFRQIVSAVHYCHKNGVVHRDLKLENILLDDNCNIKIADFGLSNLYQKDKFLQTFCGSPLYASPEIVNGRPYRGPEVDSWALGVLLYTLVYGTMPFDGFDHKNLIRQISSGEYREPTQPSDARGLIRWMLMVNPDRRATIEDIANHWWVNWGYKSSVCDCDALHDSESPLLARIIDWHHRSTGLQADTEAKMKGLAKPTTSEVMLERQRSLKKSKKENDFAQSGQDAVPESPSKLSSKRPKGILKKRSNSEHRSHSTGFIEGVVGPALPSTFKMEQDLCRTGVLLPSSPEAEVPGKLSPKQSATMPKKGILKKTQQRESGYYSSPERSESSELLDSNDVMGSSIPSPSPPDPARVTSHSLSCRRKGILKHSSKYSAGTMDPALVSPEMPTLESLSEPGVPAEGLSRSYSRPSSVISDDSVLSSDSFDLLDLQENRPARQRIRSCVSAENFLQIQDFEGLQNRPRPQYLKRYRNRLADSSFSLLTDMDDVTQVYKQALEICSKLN
Procedure: (§1) The compounds in Tables 5-6 were tested for their inhibitory effect on a set of kinases according to the following procedures.
(§2) The basic protocol for TR-FRET LanthaScreen Eu Kinase Binding Assay inhibitor studies were performed as follows. LanthaScreen Kinase Binding Assays (ThermoFisher/USA) to evaluate inhibitors were performed by addition of 5 μl of test compound in corresponding DMSO dilutions/5 μl of kinase/antibody mixture, 5 μl of tracer into 384 well small volume plates. After incubation for 1 hour at room temperature, plates were read. Data analysis of emission ratios was according to LanthaScreen Eu Kinase Binding Assay protocol.
(§3) Kinase and assay components were adjusted to final concentrations according to the kit protocol. For LRRK2: 5 nM wt human LRRK2, catalytic site, or G2019S human LRRK2, catalytic site (ThermoFisher/USA), 2 nM Eu-Anti-GST Antibody, 10 nM Kinase Tracer 236 in 1× Kinase Buffer A. For NUAK1: 8 nM wt human NUAK1, full length (ThermoFisher/USA), 2 nM Eu-Anti-His Antibody, 5 nM Kinase Tracer 236 in 1× Kinase Buffer A.

[2] = biological target: T2, G2019S human LRRK2, catalytic site (Homo sapiens, UniProt Q5S007, G2019S); test: TR-FRET LanthaScreen Eu Kinase Binding Assay, LRRK2 G2019S (Example 72); details: Example 72 text; one statement for LRRK2 (Wt) and LRRK2 (G2019); read-out: IC50, Inhibitory Activity Toward LRRK2 (G2019)
T2 construct: G2019S human LRRK2, catalytic site; purchased ThermoFisher/USA
Procedure: as §1, §2, §3

[3] = biological target: T3, wt human LRRK2, catalytic site (Homo sapiens, UniProt Q5S007); test: TR-FRET LanthaScreen Eu Kinase Binding Assay, LRRK2 wt (Example 72); details: Example 72 text; one statement for LRRK2 (Wt) and LRRK2 (G2019); read-out: IC50, Inhibitory Activity Toward LRRK2 (Wt)
T3 construct: wt human LRRK2, catalytic site; purchased ThermoFisher/USA
Procedure: as §1, §2, §3

[4] = biological target: T4, wt human TYK2, catalytic site (Homo sapiens, UniProt P29597); test: HTRF KinEASE assay, TYK2 (Example 72); type: biochemical; details: Example 72 text; read-out: IC50, Inhibitory Activity Toward TYK2
T4 construct: wt human TYK2, catalytic site; purchased SignalChem/CAN
T4 sequence (P29597 897-1176 limits assumed): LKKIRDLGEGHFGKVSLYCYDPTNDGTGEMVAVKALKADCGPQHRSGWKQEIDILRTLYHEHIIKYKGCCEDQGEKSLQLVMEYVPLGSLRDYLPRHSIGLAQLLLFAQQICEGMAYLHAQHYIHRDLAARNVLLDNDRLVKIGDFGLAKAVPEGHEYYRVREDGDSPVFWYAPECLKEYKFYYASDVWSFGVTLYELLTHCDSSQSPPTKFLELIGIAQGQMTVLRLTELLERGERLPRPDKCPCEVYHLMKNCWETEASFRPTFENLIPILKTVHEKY
Procedure: as §1
Basic protocol for HTRF KinEASE assay (Cisbio/FRA) inhibitor studies involved two steps:
Enzymatic step: Addition of 4 μl of test compound in corresponding DMSO dilutions, 4 μl of kinase/substrate mixture, 2 μl of ATP into 384 well small volume plates. Incubation for at least 30 minutes at room temperature.
Detection step: Addition of 5 μl antibody and 5 μl streptavidin-XL665, read plate after 60 minutes. Data analysis of emission ratios according to KinEASE assay protocol.
Kinase and assay components were adjusted to final concentrations according to the kit protocol. For TYK2: 2 nM wt human TYK2, catalytic site (SignalChem/CAN), 1 μM HTRF KinEASE-TK Substrate-biotin, 1 μM ATP in 1× Kinase Buffer

T2 sequence (Q5S007 1879-2138 G2019S limits assumed): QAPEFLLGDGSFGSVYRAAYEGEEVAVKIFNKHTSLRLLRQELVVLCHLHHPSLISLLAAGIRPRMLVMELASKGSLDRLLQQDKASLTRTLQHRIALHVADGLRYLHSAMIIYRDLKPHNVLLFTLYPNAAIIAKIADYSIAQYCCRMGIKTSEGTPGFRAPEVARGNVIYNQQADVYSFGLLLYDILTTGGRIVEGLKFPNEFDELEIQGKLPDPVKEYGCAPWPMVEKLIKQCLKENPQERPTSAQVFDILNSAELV
T3 sequence (Q5S007 1879-2138 limits assumed): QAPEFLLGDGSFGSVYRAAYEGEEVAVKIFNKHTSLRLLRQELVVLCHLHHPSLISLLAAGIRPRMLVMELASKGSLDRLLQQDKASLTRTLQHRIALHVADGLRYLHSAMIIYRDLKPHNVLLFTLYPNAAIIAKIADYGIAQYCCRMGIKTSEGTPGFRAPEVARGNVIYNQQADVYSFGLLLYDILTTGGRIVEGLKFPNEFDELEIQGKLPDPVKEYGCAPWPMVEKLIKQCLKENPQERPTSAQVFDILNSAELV

IC50 [1]	IC50 [2]	IC50 [3]	IC50 [4]	SMILES
10 to 100 nM	< 10 nM	< 10 nM	–	Fc1cccc(F)c1C1=Nc2c[nH]nc2-c2cccc3ncn1c23 [Compound 301, 3-(2,6-difluorophenyl)-7H-1,2a,4,6,7-pentaazabenzo[cd]cyclopenta[f]azulene]
–	< 10 nM	< 10 nM	–	Fc1cccc(F)c1C1=Nc2c[nH]nc2-c2cccc3cnn1c23 [Compound 302, 4-(2,6-difluorophenyl)-8H-pyrazolo[4′,3′:4,5][1,3]diazepino[6,7,1-hi]indazole]
10 to 100 nM	100 to 1000 nM	100 to 1000 nM	100 to 1000 nM	Fc1cccc(F)c1C1=Nc2cn[nH]c2-c2cncc3ncn1c23 [Compound 303, 3-(2,6-difluorophenyl)-7H-1,2a,4,6,7,9-hexaazabenzo[cd]cyclopenta[f]azulene]
10 to 100 nM	10 to 100 nM	10 to 100 nM	–	Fc1cccc(F)c1C1=Nc2cn[nH]c2-c2cccc3nnn1c23 [Compound 304, 3-(2,6-difluorophenyl)-7H-1,2,2a,4,6,7-hexaazabenzo[cd]cyclopenta[f]azulene]
10 to 100 nM	10 to 100 nM	10 to 100 nM	–	Fc1cccc(Cl)c1C1=Nc2cn[nH]c2-c2cccc3cnn1c23 [Compound 306, 4-(2-chloro-6-fluorophenyl)-8H-pyrazolo[4′,3′:4,5][1,3]diazepino[6,7,1-hi]indazole]
10 to 100 nM	10 to 100 nM	10 to 100 nM	–	Fc1cccc(F)c1C1=Nc2cn[nH]c2-c2nnc3cccn1c2-3 [Compound 307, 9-(2,6-difluorophenyl)-3H-2,3,4,5,8a,10-hexaazabenzo[cd]cyclopenta[h]azulene]
10 to 100 nM	< 10 nM	< 10 nM	–	Fc1cccc(F)c1C1=Nc2cn[nH]c2-c2cnn3c2N1CCC3 [Compound 308, 9-(2,6-difluorophenyl)-3,6,7,8-tetrahydro-2,3,5,5a,8a,10-hexaazabenzo[cd]cyclopenta[h]azulene]
–	< 10 nM	< 10 nM	–	Clc1cccc(Cl)c1C1=Nc2c[nH]nc2-c2cccc3cnn1c23 [Compound 309, 4-(2,6-dichlorophenyl)-8H-pyrazolo[4′,3′:4,5][1,3]diazepino[6,7,1-hi]indazole]
–	10 to 100 nM	10 to 100 nM	–	CC(=O)n1cc2c3c(cccc31)-c1n[nH]cc1N=C2c1c(F)cccc1F [Compound 311, 1-(3-(2,6-difluorophenyl)pyrazolo[3′,4′:6,7]azepino[3,4,5-cd]indol-1(7H)-yl)ethan-1-one]
10 to 100 nM	< 10 nM	< 10 nM	–	Cc1cn2c3c(cccc13)-c1n[nH]cc1N=C2c1c(F)cccc1F [Compound 313, 10-(2,6-difluorophenyl)-7-methyl-3H-pyrazolo[4′,3′:4,5][1,3]diazepino[6,7,1-hi]indole]
–	100 to 1000 nM	100 to 1000 nM	100 to 1000 nM	Fc1cc2c3c(cnn3C(c3c(F)cccc3F)=Nc3c[nH]nc3-2)c1 [Compound 314, 4-(2,6-difluorophenyl)-10-fluoro-7H-pyrazolo[4′,3′:4,5][1,3]diazepino[6,7,1-hi]indazole]
10 to 100 nM	< 10 nM	< 10 nM	–	Fc1ccc(F)c(C2=Nc3c[nH]nc3-c3cccc4cnn2c34)c1 [Compound 315, 4-(2,5-difluorophenyl)-8H-pyrazolo[4′,3′:4,5][1,3]diazepino[6,7,1-hi]indazole]
–	10 to 100 nM	10 to 100 nM	–	Fc1ccccc1C1=Nc2c[nH]nc2-c2cccc3cnn1c23 [Compound 316, 4-(2-fluorophenyl)-8H-pyrazolo[4′,3′:4,5][1,3]diazepino[6,7,1-hi]indazole]
10 to 100 nM	< 10 nM	< 10 nM	–	Fc1cccc(F)c1C1=Nc2cn[nH]c2-c2ccc(F)c3cnn1c23 [Compound 317, 4-(2,6-difluorophenyl)-11-fluoro-8H-pyrazolo[4′,3′:4,5][1,3]diazepino[6,7,1-hi]indazole]
